# According to patent US20230085307A1, “PYRIDAZINONE COMPOUND AND HERBICIDE” (NISSAN CHEMICAL CORPORATION, priority 2019, published 2023):
# Tests used:
# [1] = tested on: oval-leafed pondweed; experiment: Test Example 2: herbicidal activity, application during weed generation under submerged conditions (Table 17, symbol C); format: in vivo, oval-leafed pondweed (Monochoria vaginalis); details: AAH 320 g/ha; application during weed generation, submerged conditions
# In short: (§1)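 Herbicide emulsion, diluted with water to the chosen amount, is applied onto 4 cm floodwater over alluvial soil where the weeds were co-sown and raised at 25–30° C. Application timing: 1–2 leaves. Assessment: three weeks afterwards.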
# [2] = tested on: rice flat sedge; experiment: Test Example 3: herbicidal effect by foliage application, Wagner pot (Table 18, symbol E); format: in vivo, rice flat sedge (Cyperus iria); details: amount of applied herbicide 320 g/ha
# In short: (§2)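 Plants were sown in alluvial soil held under 0.1–0.5 cm standing water and grown 14 days in a greenhouse at 25–30 °C. An emulsifiable formulation, water-diluted to the set dose, was then sprayed onto the foliage, and effects were scored three weeks later using previously defined criteria.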
# [3] = tested on: Chinese sprangletop; experiment: Test Example 3: herbicidal effect by foliage application, Wagner pot (Table 18, symbol D); format: in vivo, chinese sprangletop (Leptochloa chinensis); details: amount of applied herbicide 320 g/ha
# In short: as §2
# [4] = tested on: Japanese bulrush; experiment: Test Example 2: herbicidal activity, application during weed generation under submerged conditions (Table 17, symbol B); format: in vivo, Japanese bulrush (Schoenoplectus juncoides); details: AAH 320 g/ha; application during weed generation, submerged conditions
# In short: as §1
# [5] = tested on: late watergrass; experiment: Test Example 2: herbicidal activity, application during weed generation under submerged conditions (Table 17, symbol A); format: in vivo, late watergrass (Echinochloa oryzicola); details: AAH 320 g/ha; application during weed generation, submerged conditions
# In short: as §1
# [6] = tested on: late watergrass; experiment: Test Example 1: herbicidal activity, application before weed generation under submerged conditions (Table 16, symbol A); format: in vivo, late watergrass (Echinochloa oryzicola); details: 320 g/ha applied herbicide
# In short: (§3)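 Submerged Wagner pots (alluvial soil, 4 cm water) sown with weed seeds and planted with 2.5-leaf rice seedlings; emulsifiable concentrate diluted in water applied to water surface on sowing day. Held in greenhouse at 25-30 °C; injury scored 0-5 by herbicidal rate after three weeks.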
# [7] = tested on: oval-leafed pondweed; experiment: Test Example 1: herbicidal activity, application before weed generation under submerged conditions (Table 16, symbol C); format: in vivo, oval-leafed pondweed (Monochoria vaginalis); details: 320 g/ha applied herbicide
# In short: as §3
# [8] = tested on: barnyard grass; experiment: Test Example 3: herbicidal effect by foliage application, Wagner pot (Table 18, symbol H); format: in vivo, barnyard grass (Echinochloa crus-galli); details: amount of applied herbicide 320 g/ha
# In short: as §2
# [9] = tested on: Japanese bulrush; experiment: Test Example 1: herbicidal activity, application before weed generation under submerged conditions (Table 16, symbol B); format: in vivo, Japanese bulrush (Schoenoplectus juncoides); details: 320 g/ha applied herbicide
# In short: as §3
smiles,measurement,setting,value
CCCC(=O)Oc1c(C)nn(C)c(=O)c1-c1c(-c2ccc(C(F)(F)F)cc2Cl)sc2ccc(F)cc12 [2-357],"herbicidal effect rating, C: oval-leafed pondweed",[1],0 (Herbicidal rate of 5% or less (almost no effect))
same,herbicidal effect on E: rice flat sedge,[2],2 (Herbicidal rate of 20% or more and less than 40%)
same,herbicidal effect on D: Chinese sprangletop,[3],3 (Herbicidal rate of 40% or more and less than 70%)
same,"herbicidal effect rating, B: Japanese bulrush",[4],0 (Herbicidal rate of 5% or less (almost no effect))
same,"herbicidal effect rating, A: late watergrass",[5],2 (Herbicidal rate of 20% or more and less than 40%)
same,Herbicidal effect on A: late watergrass (grade 0-5),[6],4 (Herbicidal rate of 70% or more and less than 90%)
same,Herbicidal effect on C: oval-leafed pondweed (grade 0-5),[7],0 (Herbicidal rate of 5% or less (almost no effect))
same,herbicidal effect on H: barnyard grass,[8],5 (Herbicidal rate of 90% or more (almost completely withered))
same,Herbicidal effect on B: Japanese bulrush (grade 0-5),[9],2 (Herbicidal rate of 20% or more and less than 40%)
